Columns and labels:
[1] = system: Phospho-YAP (SER127) in HaCaT cells; assay: pYAP HTRF Assay (HaCaT Cells); type: cell-based, human; conditions: Homo sapiens, 2 hours
In short: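 Phospho-YAP (Ser127) was measured by HTRF (665 nm/620 nm ratio) in HaCaT cells. Cells were grown 48 hours at 37° C at 5500 cells/well, exposed to compound for 2 hours, and incubated with detection reagents for 20 hrs at room temperature.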

[2] = system: Phospho-YAP (Ser127) in JHH-5 cells; assay: pYAP HTRF Assay (JHH-5 cells); type: cell-based; conditions: 2 hours
Protocol: Briefly, JHH-5 cells are suspended at 0.48×10^6 cells/ml in William's E medium without phenol-red (Thermo Fisher Scientific Gibco catalog number A1217601) supplemented with 10% (v/v) heat-inactivated fetal bovine serum (Thermo Fisher Scientific Gibco catalog number 16140071) and penicillin-streptomycin at 100 U/ml each (Thermo Fisher Scientific Gibco catalog number 15140122). Cells are dispensed into 384well clear bottom culture plates (50 ul/well, at 24000 cells per well, Greiner catalog number 781091), and incubated for 24 hours in a cell culture incubator at 37° C. Test compounds are transferred into culture plates containing JHH-5 cells using an Echo550 (Labcyte) acoustic dispenser (50 nl/well), followed by incubation for 2 hours at 37° C. Lysis buffer (part of CisBio kit catalog number 64YAPPEI) is added to the assay plates as a four-fold concentrate (corresponding to 16 ul/well) and incubated for 30 minutes at room temperature with agitation. Lysate is transferred from culture plates into white low-volume 384well assay plates (12 ul/well, Greiner catalog number 784075), followed by the addition of 3 ul/well of detection antibodies (part of CisBio kit catalog number 64YAPPEI: 1:40 dilution of each pYAP d2 antibody and pYAP cryptate antibody stocks). The plates are sealed and incubated overnight (18 hours) at room temperature protected from light. Plates are read on an EnVision plate reader (Perkin Elmer) at emission wavelengths of 665 nm and 620 nm. The HTRF signal ratio x per well is calculated as [x=Signal(665 nm)/Signal(620 nm)×10000] as specified in the manufacturer's protocol.

[3] = system: YAP nuclear translocation in HaCaT cells; assay: YAP Translocation Assay (HaCaT Cells); type: cell-based, human; conditions: Homo sapiens, 24 hours
In short: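 HaCaT cells (20,000/well) in DMEM + 10% FBS were plated overnight at 37° C, then exposed to compound for 24 h at 37° C. Cells were fixed with PFA, permeabilized with 0.1% Triton/1.5% BSA and imaged by high-content imaging.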

LATS1 = LATS1 (Homo sapiens (Human), UniProt O95835); assay: LATS1 biochemical assay (Table 1A, Compound Examples 1-290; method in the earlier part)
Chain of LATS1 (O95835 whole entry, looked up): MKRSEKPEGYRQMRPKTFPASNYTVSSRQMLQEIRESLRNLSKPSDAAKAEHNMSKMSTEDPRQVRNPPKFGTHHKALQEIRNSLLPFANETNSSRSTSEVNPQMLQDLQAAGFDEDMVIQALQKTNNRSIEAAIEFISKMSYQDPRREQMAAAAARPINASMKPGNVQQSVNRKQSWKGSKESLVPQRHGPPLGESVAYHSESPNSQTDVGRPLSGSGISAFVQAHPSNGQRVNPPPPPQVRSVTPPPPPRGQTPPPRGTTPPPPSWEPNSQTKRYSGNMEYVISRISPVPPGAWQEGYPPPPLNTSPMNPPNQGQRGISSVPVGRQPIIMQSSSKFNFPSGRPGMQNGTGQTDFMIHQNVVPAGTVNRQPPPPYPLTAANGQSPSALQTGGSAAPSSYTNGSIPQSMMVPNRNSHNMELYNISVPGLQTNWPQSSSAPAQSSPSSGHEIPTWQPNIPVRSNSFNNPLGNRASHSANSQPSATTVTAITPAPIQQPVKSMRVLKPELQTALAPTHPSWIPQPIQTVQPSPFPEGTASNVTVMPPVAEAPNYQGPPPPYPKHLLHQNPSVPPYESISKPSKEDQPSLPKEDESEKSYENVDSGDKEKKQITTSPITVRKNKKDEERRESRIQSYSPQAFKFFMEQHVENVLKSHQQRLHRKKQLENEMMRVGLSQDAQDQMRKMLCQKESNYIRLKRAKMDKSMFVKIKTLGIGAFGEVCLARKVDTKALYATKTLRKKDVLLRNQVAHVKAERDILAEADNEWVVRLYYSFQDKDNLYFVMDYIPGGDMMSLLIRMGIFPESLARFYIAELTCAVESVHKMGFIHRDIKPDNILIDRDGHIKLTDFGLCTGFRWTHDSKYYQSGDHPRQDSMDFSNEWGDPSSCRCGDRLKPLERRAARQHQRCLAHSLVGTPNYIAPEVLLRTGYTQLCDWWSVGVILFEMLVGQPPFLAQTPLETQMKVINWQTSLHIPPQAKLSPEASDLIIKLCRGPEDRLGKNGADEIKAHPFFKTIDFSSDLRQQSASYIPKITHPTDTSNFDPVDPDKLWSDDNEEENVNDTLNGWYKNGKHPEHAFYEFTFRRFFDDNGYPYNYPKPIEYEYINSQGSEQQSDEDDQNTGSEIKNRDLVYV
Chain of LATS1 (Q7L9L4 whole entry partner, looked up): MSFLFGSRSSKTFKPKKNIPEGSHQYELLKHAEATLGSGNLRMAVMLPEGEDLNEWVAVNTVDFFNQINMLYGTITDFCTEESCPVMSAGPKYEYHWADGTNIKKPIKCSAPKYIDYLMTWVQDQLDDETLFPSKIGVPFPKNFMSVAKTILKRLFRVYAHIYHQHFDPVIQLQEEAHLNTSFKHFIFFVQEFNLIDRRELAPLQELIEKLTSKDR

Compound | IC50 [1] | IC50 [2] | EC50 [3] | IC50 (LATS1)
CC(Nc1nc(-c2ccncc2)nc2cnccc12)(C(=O)O)C(F)(F)F (stereo not shown) [Example 84, 3,3,3-trifluoro-2-methyl-2-{[2-(pyridin-4-yl)pyrido[3,4-d]pyrimidin-4-yl]amino}propanoic acid] | 65.2 µM | > 10 µM | > 20 µM | 21 nM
CC(C)N(C)c1nc(-c2ccncc2F)nc2cnccc12 [Example 122, 2-(3-fluoropyridin-4-yl)-N-methyl-N-(propan-2-yl)pyrido[3,4-d]pyrimidin-4-amine] | 7.4 µM | 8 µM | 5.8 µM | 15 nM
COCCC(C)(C)Nc1cc(-c2ccncc2)nc2cnccc12 [Example 254, N-(4-methoxy-2-methylbutan-2-yl)-2-(pyridin-4-yl)-1,7-naphthyridin-4-amine] | 2.91 µM | 1.3 µM | 4.63 µM | 5 nM
CCCNc1cc(-c2ccncc2)nc2cnccc12 [Example 268, N-propyl-2-(pyridin-4-yl)-1,7-naphthyridin-4-amine] |  | > 10 µM | > 20 µM | 18 nM
CC[C@H](C)Nc1cc(-c2ccncc2)nc2cnccc12 [Example 256, N-[(2S)-butan-2-yl]-2-(pyridin-4-yl)-1,7-naphthyridin-4-amine] | 11.1 µM | > 10 µM | 15.6 µM | 8 nM
CC(C)(C)Nc1cc(-c2ccncc2F)nc2cnccc12 [Example 280, N-tert-butyl-2-(3-fluoropyridin-4-yl)-1,7-naphthyridin-4-amine] | 0.476 µM | 3.8 µM | 2.73 µM | 3 nM
CC(C)(Nc1nc(-c2ccncc2F)nc2cnccc12)C(F)(F)F [Example 134, 2-(3-fluoropyridin-4-yl)-N-(1,1,1-trifluoro-2-methylpropan-2-yl)pyrido[3,4-d]pyrimidin-4-amine] | 0.539 µM | 1 µM | 1.19 µM | 1 nM
CC(C)OCC(C)(C)Nc1cc(-c2ccncc2)nc2cnccc12 [Example 255, N-[2-methyl-1-(propan-2-yloxy)propan-2-yl]-2-(pyridin-4-yl)-1,7-naphthyridin-4-amine] | 3.18 µM | 7.1 µM | 5.39 µM | 8 nM
CC(C)(C)Nc1nc(-c2ccncc2)nc2cncc(Cl)c12 [Example 251, N-(tert-butyl)-5-chloro-2-(pyridin-4-yl)pyrido[3,4-d]pyrimidin-4-amine] | 1.96 µM | 1.5 µM | 10.9 µM | 4 nM
CCCNc1nc(-c2c[nH]c3ncccc23)nc2cnccc12 [Example 155, N-propyl-2-{1H-pyrrolo[2,3-b]pyridin-3-yl}pyrido[3,4-d]pyrimidin-4-amine] | 1.58 µM | 2.6 µM | 1.05 µM | 1 nM
CC(C)(O)CC(C)(C)Nc1cc(-c2ccncc2)nc2cnccc12 [Example 263, 2,4-dimethyl-4-{[2-(pyridin-4-yl)-1,7-naphthyridin-4-yl]amino}pentan-2-ol] | 3.22 µM | > 10 µM | 5.99 µM | 7 nM
CN(C)CCC(C)(C)Nc1cc(-c2ccncc2)nc2cnccc12 [Example 265, dimethyl(3-methyl-3-{[2-(pyridin-4-yl)-1,7-naphthyridin-4-yl]amino}butyl)amine] | 22.3 µM | > 10 µM | > 20 µM | 8 nM
Cn1nccc1-c1nc(NC(C)(C)C)c2ccncc2n1 [Example 184, N-tert-butyl-2-(1-methyl-1H-pyrazol-5-yl)pyrido[3,4-d]pyrimidin-4-amine] | 2.51 µM | 6.5 µM | 2.81 µM | 4 nM
CC(C)(O)COCC(C)(C)Nc1cc(-c2ccncc2)nc2cnccc12 [Example 267, 2-methyl-1-(2-methyl-2-{[2-(pyridin-4-yl)-1,7-naphthyridin-4-yl]amino}propoxy)propan-2-ol] | 7.19 µM | 5.9 µM | 9.75 µM | 13 nM
CN(C)CCC(C)(C)Nc1cc(-c2ccncc2F)nc2cnccc12 [Example 276, (3-{[2-(3-fluoropyridin-4-yl)-1,7-naphthyridin-4-yl]amino}-3-methylbutyl)dimethylamine] |  | > 10 µM | > 20 µM | 17 nM
C[C@H](N(C)c1nc(-c2ccncc2F)nc2cnccc12)C(F)(F)F [Example 136, 2-(3-fluoropyridin-4-yl)-N-methyl-N-[(2S)-1,1,1-trifluoropropan-2-yl]pyrido[3,4-d]pyrimidin-4-amine] | 1.14 µM | 1.3 µM | 2.96 µM | 2 nM
CCN(CC)c1nc(-c2ccncc2)nc2cnccc12 [Example 2] | 0.067 µM | > 10 µM | 0.584 µM | 1 nM
CC(C)(C)Nc1cc(-c2ccnc3[nH]ccc23)nc2cnccc12 [Example 272, N-tert-butyl-2-{1H-pyrrolo[2,3-b]pyridin-4-yl}-1,7-naphthyridin-4-amine] | 3.51 µM | 8.1 µM | 5.97 µM | 2 nM
CC(C)(C)Nc1cc(-c2ccnnc2)nc2cnccc12 [Example 273, N-tert-butyl-2-(pyridazin-4-yl)-1,7-naphthyridin-4-amine] | > 100 µM | > 10 µM | > 20 µM | 463 nM
CCC(C)(C)Nc1cc(-c2ccncc2F)nc2cnccc12 [Example 281, 2-(3-fluoropyridin-4-yl)-N-(2-methylbutan-2-yl)-1,7-naphthyridin-4-amine] | 0.656 µM | 5.9 µM | 2.89 µM | 4 nM
CC(C)(O)C(C)(Nc1nc(-c2ccncc2)nc2cnccc12)C(F)(F)F (stereo not shown) [Example 50, 4,4,4-trifluoro-2,3-dimethyl-3-{[2-(pyridin-4-yl)pyrido[3,4-d]pyrimidin-4-yl]amino}butan-2-ol] | 17 µM | > 10 µM | 3.81 µM | 5 nM
c1cc(-c2cc(NC3CCCC3)c3ccncc3n2)ccn1 [Example 264, N-cyclopentyl-2-(pyridin-4-yl)-1,7-naphthyridin-4-amine] | 14.8 µM | > 10 µM | 11.2 µM | 
CN(C)CCC(C)(C)Nc1nc(-c2ccncc2)nc2cnccc12 [Example 109, dimethyl(3-methyl-3-{[2-(pyridin-4-yl)pyrido[3,4-d]pyrimidin-4-yl]amino}butyl)amine] | 0.977 µM | 1.5 µM | 4.71 µM | 
CC(C)(C)Nc1cc(-c2ccnc(N)c2)nc2cnccc12 [Example 274, 2-(2-aminopyridin-4-yl)-N-tert-butyl-1,7-naphthyridin-4-amine] |  | > 10 µM | 17.3 µM | 13 nM
CC[C@@H](C)Nc1cc(-c2ccncc2)nc2cnccc12 [Example 257, N-[(2R)-butan-2-yl]-2-(pyridin-4-yl)-1,7-naphthyridin-4-amine] |  | > 10 µM | > 20 µM | 22 nM
CCN(CC)c1cc(-c2ccncc2F)nc2cnccc12 [Example 275, N,N-diethyl-2-(3-fluoropyridin-4-yl)-1,7-naphthyridin-4-amine] |  | > 10 µM | 15.1 µM | 11 nM
CC(C)(CNCC(=O)O)Nc1nc(-c2ccncc2)nc2cnccc12 [Example 30, 2-[(2-methyl-2-{[2-(pyridin-4-yl)pyrido[3,4-d]pyrimidin-4-yl]amino}propyl)amino]acetic acid] |  | > 10 µM | > 20 µM | 39 nM
Cc1nccc2c(NC3(C)CC3)nc(-c3ccncc3)nc12 [Example 199, 8-methyl-N-(1-methylcyclopropyl)-2-(pyridin-4-yl)pyrido[3,4-d]pyrimidin-4-amine] |  | 3.2 µM | 9.1 µM | 1 nM
COCC(C)(C)Nc1cc(-c2ccncc2)nc2cnccc12 [Example 258, N-(1-methoxy-2-methylpropan-2-yl)-2-(pyridin-4-yl)-1,7-naphthyridin-4-amine] |  | > 10 µM | 9.92 µM | 23 nM
CC1(C)CC(O)CCN1c1cc(-c2ccncc2Cl)nc2cnccc12 (stereo not shown) [Example 283, 1-[2-(3-chloropyridin-4-yl)-1,7-naphthyridin-4-yl]-2,2-dimethylpiperidin-4-ol] | 8.25 µM | > 10 µM | 14.2 µM | 

Source: patent publication US11458138B2 (Novartis AG, priority 2017, dated 2022)
